From patent US10590143B2, “Herbicidally active (alkynyl-phenyl)-substituted cyclic dione compounds and derivatives thereof” (Syngenta Limited, priority 2013, dated 2020)

What was measured:
Test in all cases: Biological Example 3 glasshouse assay for herbicidal activity, using various adjuvant systems
Assay type in all cases: in vivo
Settings in all cases: post-emergence, 8 g/ha, 14 or 15 DAA; adjuvant 0.5% v/v + 1.0% AMS + 12.5% IPA: TEHP (A3-A7), Adigor (A8, P1, P2, P4), Hexamoll DINCH (A1)
[1] = test system: Digitaria sanguinalis (DIGSA)
Experimental: (§1) • Materials and Methods • Herbicide Application: Post-emergence foliar spray application, 200 L/ha, usually one or two replicates for the weeds (depending on application rate), and two replicates for soybean. • Climate: Standard warm conditions (tropical), in glasshouse. Specifically, the glasshouse bay conditions are 24° C./18° C. day/night; 16/8 hours light/dark; 65% humidity. • Plants: The herbicidal application takes place at the following growth stages for plants which include inter alia one or more of the following plants (usually the herbicidal application takes place on at least the following plants: DIGSA, ELEIN, SETFA, ZEAMX, GLXMA Nikko, and GLXMA TMG133, and often also either BRADC or BRAPP): • Brachiaria decumbens (BRADC)—growth stage (GS) 12 or 13 (or GS 12)—or, if BRADC is not used, then usually Brachiaria platyphylla (BRAPP)—growth stage 12 or 13 • Digitaria sanguinalis (DIGSA)—growth stage 12 or 13 • Eleusine indica (ELEIN)—growth stage 12 or 13 • Setaria faberi (SETFA)—growth stage 12 or 13 • Echinochloa crus-galli (ECHCG)—growth stage 12 or 13 • Sorghum halepense (annual) (SORHA)—growth stage 12 or 13 • Panicum dichotomiflorum (PANDI)—growth stage 12 or 13 • Zea mays (ZEAMX, maize/corn, e.g. can occur as volunteer corn) cultivar “Garland”—growth stage 12 or 13 • Glycine max (GLXMA, soybean) cultivar “Nikko”—growth stage: 1st trifoliate • Glycine max (GLXMA, soybean) cultivar “TMG133”—which is Roundup Ready™ glyphosate-tolerant soybean cultivar TMG133 (typically available from Monsanto in Brazil)—growth stage: 1st trifoliate. • Herbicidal Compositions Tested:
(§2) Each test compound is applied with one of the following adjuvant systems (all percentages are final concentrations in the aqueous spray mixture): • Adjuvant system 1: 0.5% v/v Adigor™*, 1.0% v/v AMS (ammonium sulphate) and 12.5% v/v IPA (isopropyl alcohol). • Adjuvant system 2: 0.5% v/v Hexamoll™ DINCH**, 1.0% v/v AMS (ammonium sulphate) and 12.5% v/v IPA (isopropyl alcohol). • Adjuvant system 3: 0.5% v/v tris-(2-ethylhexyl)phosphate (“TEHP”), 1.0% v/v AMS (ammonium sulphate) and 12.5% v/v IPA (isopropyl alcohol). ***Adigor™ (currently available in many countries from Syngenta) is an emulsifiable concentrate which consists of: • (i) ethoxylated alcohols, which typically includes ethoxylated higher alcohols (e.g. ethoxylates of alcohols wherein the alcohols are within the range of C12-C22); and • (ii) a mixture of heavy aromatic hydrocarbons, which typically includes (e.g. includes 50% or more by weight of the heavy aromatic hydrocarbons of) a mixture of naphthalenes each of which is substituted by one or more alkyls wherein the alkyl(s) in total have 1-4 carbon atoms per naphthalene molecule (e.g. Solvesso 200 ND™); and • (iii) about 47% w/w and/or about 45% w/v (with respect to the emulsifiable concentrate) of methylated rapeseed oil (rapeseed oil methyl ester) (e.g. Agnique ME 18 RD-F™), as an adjuvant. **Hexamoll™ DINCH™ is 1,2-cyclohexane dicarboxylic acid di-isononyl ester
(§3) Seeds of the weed (including volunteer) plants, typically including inter alia Digitaria sanguinalis (DIGSA), Eleusine indica (ELEIN), Setaria faberi (SETFA), Zea mays (ZEAMX, corn), and sometimes also [either Brachiaria decumbens (BRADC) or Brachiaria platyphylla (BRAPP)], are sown in seed trays (troughs) containing clay loam soil (pH 7.0, 2.2% organic matter, “Trough Mix A”); and soybean seed is sown in pots containing the same soil with 3 soybean seedlings per pot. The plants are sprayed with the test herbicide when they reach the growth stages mentioned above.
(§4) The test herbicidal solutions are prepared by mixing the appropriate aliquots of the test substance(s) and one of the adjuvant systems indicated above*** in deionised water to give the desired treatment concentration.
(§5) The herbicidal application is made as a foliar spray, using a tracksprayer. Following the herbicidal application, the plants are watered twice per day for the duration of the test. […]

[2] = test system: Setaria faberi (SETFA)
Experimental: as §1, §2, §3, §4, §5

[3] = test system: Eleusine indica (ELEIN)
Experimental: as §1, §2, §3, §4, §5

[4] = test system: Brachiaria decumbens (BRADC)
Experimental: as §1, §2, §3, §4, §5

Compound	percentage control of (percentage phytotoxicity on) Digitaria sanguinalis (DIGSA) [1]	percentage control of (percentage phytotoxicity on) Setaria faberi (SETFA) [2]	percentage control of (percentage phytotoxicity on) Eleusine indica (ELEIN) [3]	percentage control of (percentage phytotoxicity on) Brachiaria decumbens (BRADC) [4]
CC#Cc1cc(F)c(C2=C(OC(=O)C(C)(C)C)C3CCC(C3)C2=O)c(OC)c1 (centres unmarked) [Compound P1]	70%	–	–	–
COc1cc(C#CCl)cc(F)c1C1C(=O)C2CCC(C2)C1=O (centres unmarked) [Compound A8, 3-[4-(2-chloroethynyl)-2-fluoro-6-methoxy-phenyl]bicyclo[3.2.1]octane-2,4-dione]	30%	10%	5%	15%
